From patent US8247211B2, “Glycopeptide antibiotics” (American Cyanamid Company, priority 2001, dated 2012)
≈ marks a conversion by molar mass, not a printed value.

How the values were obtained:
Test in all cases: In vitro antibacterial evaluation: minimum inhibitory concentration (MIC), broth dilution method
Type in all cases: cell-based
Settings in all cases: 18 hours at 35° C.
Enterococcus sp. = system: Enterococcus sp.
Procedure, shortened: (§1)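 Following NCCLS approved standard M7-A2, compounds are serially diluted from 64 to 0.06 μg/mL in Muller-Hinton II […] and inoculated at 5×10^5 CFU/mL; the MIC is the minimum concentration at which growth is inhibited.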

Staphylococcus sp. = system: Staphylococcus sp.
Procedure, shortened: as §1

Escherichia coli = system: Escherichia coli
Procedure, shortened: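 Inoculum: 5×10^5 CFU/mL. Range: 64-0.06 μg/mL. Medium: Muller-Hinton II […]; NCCLS M7-A2 broth dilution. Endpoint: lowest concentration inhibiting growth. Strains include methicillin-, penicillin- and/or vancomycin-resistant clinical isolates.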

Streptococcus sp. = system: Streptococcus sp.
Procedure, shortened: as §1

[1] = broth dilution, inoculum 5×10^5 CFU/mL

- MIC Enterococcus avium (GC 4558) (Enterococcus sp.; Enterococcus avium (GC 4558)): 32 µg/mL (≈ 22.6 µM)
- MIC Enterococcus faecalis (ATCC 29212) (Enterococcus sp.; Enterococcus faecalis (ATCC 29212)): 32 µg/mL (≈ 22.6 µM)
- MIC Enterococcus faecalis (GC 2242) (Enterococcus sp.; Enterococcus faecalis (GC 2242)): 16 µg/mL (≈ 11.3 µM)
- MIC Enterococcus faecalis (GC 2691) (Enterococcus sp.; Enterococcus faecalis (GC 2691)): 32 µg/mL (≈ 22.6 µM)
- MIC Enterococcus faecalis (GC 3059) (Enterococcus sp.; Enterococcus faecalis (GC 3059)): 32 µg/mL (≈ 22.6 µM)
- MIC Enterococcus faecalis (GC 4552) (Enterococcus sp.; Enterococcus faecalis (GC 4552)): 32 µg/mL (≈ 22.6 µM)
- MIC Enterococcus faecalis (GC 4553) (Enterococcus sp.; Enterococcus faecalis (GC 4553)): 32 µg/mL (≈ 22.6 µM)
- MIC Enterococcus faecalis (GC 4554) (Enterococcus sp.; Enterococcus faecalis (GC 4554)): 32 µg/mL (≈ 22.6 µM)
- MIC Enterococcus faecalis (GC 6189) (Enterococcus sp.; Enterococcus faecalis (GC 6189)): 64 µg/mL (≈ 45.2 µM)
- MIC Enterococcus faecium (GC 2243) (Enterococcus sp.; Enterococcus faecium (GC 2243)): 16 µg/mL (≈ 11.3 µM)
- MIC Enterococcus faecium (GC 4556) (Enterococcus sp.; Enterococcus faecium (GC 4556)): 32 µg/mL (≈ 22.6 µM)
- MIC Enterococcus faecium (GC 4557) (Enterococcus sp.; Enterococcus faecium (GC 4557)): 4 µg/mL (≈ 2.83 µM)
- MIC Enterococcus avium (GC 4558) (Enterococcus sp.; [1]): 32 µg/mL (≈ 22.6 µM)
- MIC Enterococcus faecalis (ATCC 29212) (Enterococcus sp.; [1]): 32 µg/mL (≈ 22.6 µM)
- MIC Enterococcus faecalis (GC 2242) (Enterococcus sp.; [1]): 16 µg/mL (≈ 11.3 µM)
- MIC Enterococcus faecalis (GC 2691) (Enterococcus sp.; [1]): 32 µg/mL (≈ 22.6 µM)
- MIC Enterococcus faecalis (GC 3059) (Enterococcus sp.; [1]): 32 µg/mL (≈ 22.6 µM)
- MIC Enterococcus faecalis (GC 4552) (Enterococcus sp.; [1]): 32 µg/mL (≈ 22.6 µM)
- MIC Enterococcus faecalis (GC 4553) (Enterococcus sp.; [1]): 32 µg/mL (≈ 22.6 µM)
- MIC Enterococcus faecalis (GC 4554) (Enterococcus sp.; [1]): 32 µg/mL (≈ 22.6 µM)
- MIC Enterococcus faecalis (GC 6189) (Enterococcus sp.; [1]): 64 µg/mL (≈ 45.2 µM)
- MIC Enterococcus faecium (GC 2243) (Enterococcus sp.; [1]): 16 µg/mL (≈ 11.3 µM)
- MIC Enterococcus faecium (GC 4556) (Enterococcus sp.; [1]): 32 µg/mL (≈ 22.6 µM)
- MIC Enterococcus faecium (GC 4557) (Enterococcus sp.; [1]): 4 µg/mL (≈ 2.83 µM)
- MIC Coagulase Negative Staphylococcus (GC 4547) (Staphylococcus sp.; Coagulase Negative Staphylococcus (GC 4547)): 2 µg/mL (≈ 1.41 µM)
- MIC Coagulase Negative Staphylococcus (GC 4548) (Staphylococcus sp.; Coagulase Negative Staphylococcus (GC 4548)): 2 µg/mL (≈ 1.41 µM)
- MIC Coagulase Negative Staphylococcus (GC 4549) (Staphylococcus sp.; Coagulase Negative Staphylococcus (GC 4549)): 1 µg/mL (≈ 0.707 µM)
- MIC Coagulase Negative Staphylococcus (GC 4551) (Staphylococcus sp.; Coagulase Negative Staphylococcus (GC 4551)): 4 µg/mL (≈ 2.83 µM)
- MIC Coagulase Negative Staphylococcus (GC 6257) (Staphylococcus sp.; Coagulase Negative Staphylococcus (GC 6257)): 2 µg/mL (≈ 1.41 µM)
- MIC Staphylococcus aureus (ATCC 29213) (Staphylococcus sp.; Staphylococcus aureus (ATCC 29213)): 4 µg/mL (≈ 2.83 µM)
- MIC Staphylococcus aureus (GC 1131) (Staphylococcus sp.; Staphylococcus aureus (GC 1131)): 4 µg/mL (≈ 2.83 µM)
- MIC Staphylococcus aureus (GC 3051) (Staphylococcus sp.; Staphylococcus aureus (GC 3051)): 4 µg/mL (≈ 2.83 µM)
- MIC Staphylococcus aureus (GC 3053) (Staphylococcus sp.; Staphylococcus aureus (GC 3053)): 8 µg/mL (≈ 5.65 µM)
- MIC Staphylococcus aureus (GC 4541) (Staphylococcus sp.; Staphylococcus aureus (GC 4541)): 4 µg/mL (≈ 2.83 µM)
- MIC Staphylococcus aureus (GC 4542) (Staphylococcus sp.; Staphylococcus aureus (GC 4542)): 4 µg/mL (≈ 2.83 µM)
- MIC Staphylococcus aureus (GC 4544) (Staphylococcus sp.; Staphylococcus aureus (GC 4544)): 4 µg/mL (≈ 2.83 µM)
- MIC Staphylococcus aureus (GC 4545) (Staphylococcus sp.; Staphylococcus aureus (GC 4545)): 4 µg/mL (≈ 2.83 µM)
- MIC Staphylococcus aureus-SMITH (GC 4543) (Staphylococcus sp.; Staphylococcus aureus-SMITH (GC 4543)): 4 µg/mL (≈ 2.83 µM)
- MIC Escherichia coli (ATCC 25922) (Escherichia coli; Escherichia coli (ATCC 25922)): >64 µg/mL
- MIC Escherichia coli (GC 4559) (Escherichia coli; Escherichia coli (GC 4559)): 64 µg/mL (≈ 45.2 µM)
- MIC Escherichia coli (GC 4560) (Escherichia coli; Escherichia coli (GC 4560)): 2 µg/mL (≈ 1.41 µM)
- MIC Streptococcus agalactiae (GC 4564) (Streptococcus sp.; Streptococcus agalactiae (GC 4564)): 2 µg/mL (≈ 1.41 µM)
- MIC Streptococcus pneumoniae (ATCC 6301) (Streptococcus sp.; Streptococcus pneumoniae (ATCC 6301)): 0.5 µg/mL (≈ 0.353 µM)
- MIC Streptococcus pneumoniae (GC 1894) (Streptococcus sp.; Streptococcus pneumoniae (GC 1894)): 0.5 µg/mL (≈ 0.353 µM)
- MIC Streptococcus pneumoniae (GC 4565) (Streptococcus sp.; Streptococcus pneumoniae (GC 4565)): 1 µg/mL (≈ 0.707 µM)
- MIC Streptococcus pyogenes (GC 4563) (Streptococcus sp.; Streptococcus pyogenes (GC 4563)): 2 µg/mL (≈ 1.41 µM)
- MIC Streptococcus agalactiae (GC 4564) (Streptococcus sp.; [1]): 2 µg/mL (≈ 1.41 µM)
- MIC Streptococcus pneumoniae (ATCC 6301) (Streptococcus sp.; [1]): 0.5 µg/mL (≈ 0.353 µM)
- MIC Streptococcus pneumoniae (GC 1894) (Streptococcus sp.; [1]): 0.5 µg/mL (≈ 0.353 µM)
- MIC Streptococcus pneumoniae (GC 4565) (Streptococcus sp.; [1]): 1 µg/mL (≈ 0.707 µM)
- MIC Streptococcus pyogenes (GC 4563) (Streptococcus sp.; [1]): 2 µg/mL (≈ 1.41 µM)
SMILES: COc1ccc(COCC2OC(OC3C(CO)OC(Oc4ccc(CC5NC(=O)C(C(C)c6ccccc6)NC(=O)CNC(=O)C(CO)NC(=O)C(C(O)C6CNC(=N)N6C6OC(CO)C(O)C(O)C6O)NC(=O)C(C(O)C6CNC(=N)N6)NC5=O)cc4)C(O)C3O)C(O)C(O)C2O)cc1 (stereo not drawn) [Example 232, Cyclo[glycyl-β-methylphenylalanyl-O-[4-O-[6-O-(4-methoxybenzyl)hexopyranosyl]hexopyranosyl]tyrosyl-3-(2-iminoimidazolidin-4-yl)seryl-3-(3-hexopyranosyl-2-iminoimidazolidin-4-yl)serylseryl]]
- MIC Staphylococcus haemolyticus (GC 4546) (Staphylococcus sp.; Staphylococcus haemolyticus (GC 4546)): 2 µg/mL (≈ 1.41 µM)
